Values belong to the molecule of their own block, whether it stands above or below them.
Columns and labels:
[1] = target: Bromodomain-containing protein 1 (Homo sapiens) (UniProt O95696); assay: Selectivity interaction (Bromodomain panel (DSF assay)) EUB0000224e BRD1
[2] = target: Chromatin remodeling regulator CECR2 (Homo sapiens, UniProt Q9BXF3); assay: Selectivity interaction (Bromodomain panel (DSF assay)) EUB0000224e CECR2
[3] = target: T1, Cytoplasmic tyrosine-protein kinase BMX (Homo sapiens) (UniProt P51813); assay: Selectivity interaction (KinaseProfiler™ (Millipore)) EUB0000640a BMX; details: at 1 µM
T1 sequence (whole entry): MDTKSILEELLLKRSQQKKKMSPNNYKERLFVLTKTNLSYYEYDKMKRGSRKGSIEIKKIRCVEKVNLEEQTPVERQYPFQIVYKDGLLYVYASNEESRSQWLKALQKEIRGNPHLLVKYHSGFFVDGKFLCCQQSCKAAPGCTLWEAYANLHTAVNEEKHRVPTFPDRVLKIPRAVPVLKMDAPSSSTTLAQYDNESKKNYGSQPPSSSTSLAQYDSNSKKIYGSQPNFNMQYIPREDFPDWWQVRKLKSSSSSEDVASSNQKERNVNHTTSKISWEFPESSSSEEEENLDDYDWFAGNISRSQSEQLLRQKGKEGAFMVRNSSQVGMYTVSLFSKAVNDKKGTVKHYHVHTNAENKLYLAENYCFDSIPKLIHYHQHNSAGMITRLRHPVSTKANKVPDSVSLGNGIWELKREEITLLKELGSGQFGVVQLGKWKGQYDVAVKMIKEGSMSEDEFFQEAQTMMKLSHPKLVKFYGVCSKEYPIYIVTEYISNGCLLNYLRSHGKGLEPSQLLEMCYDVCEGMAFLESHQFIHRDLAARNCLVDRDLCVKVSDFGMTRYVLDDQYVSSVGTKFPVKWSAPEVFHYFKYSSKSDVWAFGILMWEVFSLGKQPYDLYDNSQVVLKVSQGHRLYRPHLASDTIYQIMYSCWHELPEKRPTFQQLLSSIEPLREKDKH

Activated CDC42 kinase 1 = Activated CDC42 kinase 1 (Homo sapiens, UniProt Q07912); assay: Selectivity interaction (KinaseProfiler™ (Millipore)) EUB0000640a TNK2; details: at 1 µM
[4] = target: Tyrosine-protein kinase TXK (Homo sapiens) (UniProt P42681); assay: Selectivity interaction (KinaseProfiler™ (Millipore)) EUB0000640a TXK; details: at 1 µM
[5] = target: Proto-oncogene tyrosine-protein kinase ROS (Homo sapiens) (UniProt P08922); assay: Selectivity interaction (KinaseProfiler™ (Millipore)) EUB0000640a ROS1; details: at 1 µM
[6] = target: T2, Cyclin-G-associated kinase (Homo sapiens) (UniProt O14976); assay: Selectivity interaction (KinomeScan (DiscoverX)) EUB0000691a GAK; details: at 10 µM
T2 sequence (whole entry): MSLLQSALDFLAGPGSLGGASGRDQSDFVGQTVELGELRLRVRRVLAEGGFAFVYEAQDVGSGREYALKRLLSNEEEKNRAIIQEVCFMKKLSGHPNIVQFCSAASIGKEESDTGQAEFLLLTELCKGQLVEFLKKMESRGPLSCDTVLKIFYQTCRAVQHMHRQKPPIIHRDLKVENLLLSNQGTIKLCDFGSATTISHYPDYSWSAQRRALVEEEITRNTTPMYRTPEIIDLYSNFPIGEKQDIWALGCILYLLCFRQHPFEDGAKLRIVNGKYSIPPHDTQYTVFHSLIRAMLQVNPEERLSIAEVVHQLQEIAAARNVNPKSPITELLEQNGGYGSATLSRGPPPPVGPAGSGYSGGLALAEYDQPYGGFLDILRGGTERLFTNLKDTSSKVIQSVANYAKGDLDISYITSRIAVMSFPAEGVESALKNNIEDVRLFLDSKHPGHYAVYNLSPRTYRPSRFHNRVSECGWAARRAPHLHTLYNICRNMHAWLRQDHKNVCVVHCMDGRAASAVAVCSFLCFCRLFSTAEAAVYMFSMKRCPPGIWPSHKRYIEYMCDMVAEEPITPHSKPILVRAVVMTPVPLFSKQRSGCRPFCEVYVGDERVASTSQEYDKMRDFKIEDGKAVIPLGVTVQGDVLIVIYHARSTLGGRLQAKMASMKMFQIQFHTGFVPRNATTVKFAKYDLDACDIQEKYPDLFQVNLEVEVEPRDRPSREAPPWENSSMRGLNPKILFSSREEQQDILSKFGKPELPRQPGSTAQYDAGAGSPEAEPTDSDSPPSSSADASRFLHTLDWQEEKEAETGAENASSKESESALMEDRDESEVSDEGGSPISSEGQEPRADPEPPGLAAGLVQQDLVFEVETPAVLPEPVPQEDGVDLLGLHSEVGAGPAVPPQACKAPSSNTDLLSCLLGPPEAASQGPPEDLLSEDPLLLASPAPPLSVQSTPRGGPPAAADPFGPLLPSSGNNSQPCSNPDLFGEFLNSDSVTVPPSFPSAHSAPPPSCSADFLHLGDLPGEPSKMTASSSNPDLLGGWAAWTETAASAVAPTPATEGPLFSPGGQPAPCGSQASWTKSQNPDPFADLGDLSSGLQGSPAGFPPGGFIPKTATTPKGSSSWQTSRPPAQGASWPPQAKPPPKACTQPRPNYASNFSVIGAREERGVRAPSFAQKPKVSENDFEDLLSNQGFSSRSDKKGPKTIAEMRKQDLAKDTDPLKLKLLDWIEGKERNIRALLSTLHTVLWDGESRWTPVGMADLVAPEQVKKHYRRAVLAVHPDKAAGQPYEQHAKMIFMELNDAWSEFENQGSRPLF

[7] = target: Phosphatidylinositol 3-kinase C2 domain-containing subunit gamma (Homo sapiens) (UniProt O75747); assay: Selectivity interaction (KinomeScan (DiscoverX)) EUB0000691a PIK3C2G; details: at 10 µM
[8] = target: Tyrosine-protein kinase JAK1 (Homo sapiens, UniProt P23458); assay: Selectivity interaction (KinomeScan (DiscoverX)) EUB0000691a JAK1@kinase 1; details: at 10 µM
[9] = target: Serine/threonine-protein kinase 16 (Homo sapiens, UniProt O75716); assay: Selectivity interaction (KinomeScan (DiscoverX)) EUB0000691a STK16; details: at 10 µM
[10] = target: Dual specificity protein kinase TTK (Homo sapiens) (UniProt P33981); assay: Selectivity interaction (KinomeScan (DiscoverX)) EUB0000691a TTK; details: at 10 µM
[11] = target: Dual specificity mitogen-activated protein kinase kinase 4 (Homo sapiens) (UniProt P45985); assay: Selectivity interaction (KinomeScan (DiscoverX)) EUB0000691a MAP2K4; details: at 10 µM
Sequence of Dual specificity mitogen-activated protein kinase kinase 4 (Homo sapiens) (P45985 whole entry): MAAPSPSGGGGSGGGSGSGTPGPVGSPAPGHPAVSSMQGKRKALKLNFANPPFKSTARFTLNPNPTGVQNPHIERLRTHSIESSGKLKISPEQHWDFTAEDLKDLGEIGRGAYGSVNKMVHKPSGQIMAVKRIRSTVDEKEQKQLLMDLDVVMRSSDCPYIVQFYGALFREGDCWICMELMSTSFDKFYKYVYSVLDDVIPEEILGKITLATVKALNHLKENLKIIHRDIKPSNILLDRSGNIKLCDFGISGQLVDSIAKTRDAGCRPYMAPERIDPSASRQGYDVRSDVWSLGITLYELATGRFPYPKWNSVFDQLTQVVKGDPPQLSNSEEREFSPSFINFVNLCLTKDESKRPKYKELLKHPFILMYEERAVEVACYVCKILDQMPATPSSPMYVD

Sequence of Proto-oncogene tyrosine-protein kinase ROS (Homo sapiens) (P08922 whole entry): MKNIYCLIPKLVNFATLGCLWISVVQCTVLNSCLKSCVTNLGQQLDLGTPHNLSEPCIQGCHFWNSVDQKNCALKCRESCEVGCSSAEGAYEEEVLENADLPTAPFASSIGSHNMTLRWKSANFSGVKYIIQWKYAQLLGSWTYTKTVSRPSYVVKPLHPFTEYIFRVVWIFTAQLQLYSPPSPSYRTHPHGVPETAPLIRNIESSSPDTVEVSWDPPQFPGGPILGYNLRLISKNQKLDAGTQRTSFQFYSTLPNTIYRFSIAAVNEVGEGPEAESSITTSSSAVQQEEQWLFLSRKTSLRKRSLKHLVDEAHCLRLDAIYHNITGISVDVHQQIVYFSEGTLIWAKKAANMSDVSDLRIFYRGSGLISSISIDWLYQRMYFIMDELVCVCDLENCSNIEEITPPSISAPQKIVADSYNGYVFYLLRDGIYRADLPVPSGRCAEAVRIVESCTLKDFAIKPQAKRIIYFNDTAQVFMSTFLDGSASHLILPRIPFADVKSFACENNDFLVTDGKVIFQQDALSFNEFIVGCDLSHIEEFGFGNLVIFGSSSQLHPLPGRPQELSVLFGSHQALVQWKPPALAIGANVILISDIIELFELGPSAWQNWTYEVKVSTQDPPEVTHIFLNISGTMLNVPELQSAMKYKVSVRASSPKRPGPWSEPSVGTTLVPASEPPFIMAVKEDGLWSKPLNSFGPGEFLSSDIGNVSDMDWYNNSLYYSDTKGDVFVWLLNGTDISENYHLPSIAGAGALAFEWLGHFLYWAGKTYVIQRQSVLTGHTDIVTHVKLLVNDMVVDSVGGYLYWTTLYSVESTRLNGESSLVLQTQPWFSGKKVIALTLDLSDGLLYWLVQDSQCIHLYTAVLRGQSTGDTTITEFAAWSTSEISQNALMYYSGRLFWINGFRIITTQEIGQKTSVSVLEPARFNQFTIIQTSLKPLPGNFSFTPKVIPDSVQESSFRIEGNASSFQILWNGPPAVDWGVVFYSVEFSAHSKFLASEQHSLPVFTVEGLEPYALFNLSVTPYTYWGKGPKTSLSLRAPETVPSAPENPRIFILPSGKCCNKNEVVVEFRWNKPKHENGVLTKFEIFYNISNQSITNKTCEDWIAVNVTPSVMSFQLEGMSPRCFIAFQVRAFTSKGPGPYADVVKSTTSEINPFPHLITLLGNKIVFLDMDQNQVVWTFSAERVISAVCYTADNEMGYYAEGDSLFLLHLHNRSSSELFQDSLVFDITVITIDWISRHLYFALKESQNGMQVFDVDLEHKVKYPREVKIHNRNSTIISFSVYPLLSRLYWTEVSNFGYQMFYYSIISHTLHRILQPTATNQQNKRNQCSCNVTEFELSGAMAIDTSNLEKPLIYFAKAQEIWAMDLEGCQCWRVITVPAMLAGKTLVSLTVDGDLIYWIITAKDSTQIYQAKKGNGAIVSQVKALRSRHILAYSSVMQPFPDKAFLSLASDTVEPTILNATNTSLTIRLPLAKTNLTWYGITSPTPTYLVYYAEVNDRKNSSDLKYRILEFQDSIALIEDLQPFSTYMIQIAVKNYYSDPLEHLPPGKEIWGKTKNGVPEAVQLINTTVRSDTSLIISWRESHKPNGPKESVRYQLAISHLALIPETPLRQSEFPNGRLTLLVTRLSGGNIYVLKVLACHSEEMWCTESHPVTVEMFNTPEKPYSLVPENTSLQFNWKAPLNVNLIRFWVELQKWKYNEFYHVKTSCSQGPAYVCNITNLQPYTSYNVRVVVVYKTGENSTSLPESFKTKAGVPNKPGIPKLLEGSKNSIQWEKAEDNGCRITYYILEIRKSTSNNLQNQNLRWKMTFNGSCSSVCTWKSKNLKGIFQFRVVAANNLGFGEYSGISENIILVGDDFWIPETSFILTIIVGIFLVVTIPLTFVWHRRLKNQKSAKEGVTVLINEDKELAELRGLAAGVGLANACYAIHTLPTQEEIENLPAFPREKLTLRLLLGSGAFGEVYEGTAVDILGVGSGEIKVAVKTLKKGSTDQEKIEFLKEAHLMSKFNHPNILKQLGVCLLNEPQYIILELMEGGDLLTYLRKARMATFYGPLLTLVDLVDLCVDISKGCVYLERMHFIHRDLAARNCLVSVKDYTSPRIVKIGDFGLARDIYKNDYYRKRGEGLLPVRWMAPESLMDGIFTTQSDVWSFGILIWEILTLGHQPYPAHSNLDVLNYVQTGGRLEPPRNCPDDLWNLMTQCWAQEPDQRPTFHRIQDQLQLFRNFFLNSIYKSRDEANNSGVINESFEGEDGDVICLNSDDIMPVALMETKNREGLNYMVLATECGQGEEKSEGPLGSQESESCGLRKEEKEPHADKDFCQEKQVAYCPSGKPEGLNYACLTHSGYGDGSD
Sequence of Dual specificity protein kinase TTK (Homo sapiens) (P33981 whole entry): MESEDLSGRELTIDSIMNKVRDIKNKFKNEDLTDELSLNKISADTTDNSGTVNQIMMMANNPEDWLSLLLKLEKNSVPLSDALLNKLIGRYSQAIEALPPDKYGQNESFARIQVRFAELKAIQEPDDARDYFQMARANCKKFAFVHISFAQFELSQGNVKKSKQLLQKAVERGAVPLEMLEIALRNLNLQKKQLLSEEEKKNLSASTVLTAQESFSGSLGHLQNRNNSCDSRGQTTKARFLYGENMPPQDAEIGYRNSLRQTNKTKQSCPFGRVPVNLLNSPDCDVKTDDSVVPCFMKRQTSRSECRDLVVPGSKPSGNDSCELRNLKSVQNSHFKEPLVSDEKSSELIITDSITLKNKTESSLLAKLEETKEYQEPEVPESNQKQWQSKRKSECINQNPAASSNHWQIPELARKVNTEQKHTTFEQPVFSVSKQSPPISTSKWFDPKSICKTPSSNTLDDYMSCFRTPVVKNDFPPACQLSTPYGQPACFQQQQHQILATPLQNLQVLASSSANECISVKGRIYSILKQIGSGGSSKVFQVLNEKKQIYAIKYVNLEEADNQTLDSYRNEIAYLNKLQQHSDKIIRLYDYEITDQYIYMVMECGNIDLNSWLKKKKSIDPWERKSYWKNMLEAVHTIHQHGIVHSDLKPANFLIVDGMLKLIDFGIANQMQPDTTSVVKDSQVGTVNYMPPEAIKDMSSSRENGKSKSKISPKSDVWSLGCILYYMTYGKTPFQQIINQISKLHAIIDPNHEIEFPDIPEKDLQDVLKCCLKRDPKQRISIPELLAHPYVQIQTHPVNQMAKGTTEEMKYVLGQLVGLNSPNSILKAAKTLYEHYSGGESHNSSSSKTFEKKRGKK
Sequence of Serine/threonine-protein kinase 16 (O75716 whole entry): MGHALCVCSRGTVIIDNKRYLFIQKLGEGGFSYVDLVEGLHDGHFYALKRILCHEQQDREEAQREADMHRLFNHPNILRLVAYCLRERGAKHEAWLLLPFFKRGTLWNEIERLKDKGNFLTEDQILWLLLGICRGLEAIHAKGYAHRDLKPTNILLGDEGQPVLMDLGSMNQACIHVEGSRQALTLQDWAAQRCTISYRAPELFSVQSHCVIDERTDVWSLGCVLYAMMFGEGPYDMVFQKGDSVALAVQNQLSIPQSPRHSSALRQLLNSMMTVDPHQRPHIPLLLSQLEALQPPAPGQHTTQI
Sequence of Bromodomain-containing protein 1 (Homo sapiens) (O95696 whole entry): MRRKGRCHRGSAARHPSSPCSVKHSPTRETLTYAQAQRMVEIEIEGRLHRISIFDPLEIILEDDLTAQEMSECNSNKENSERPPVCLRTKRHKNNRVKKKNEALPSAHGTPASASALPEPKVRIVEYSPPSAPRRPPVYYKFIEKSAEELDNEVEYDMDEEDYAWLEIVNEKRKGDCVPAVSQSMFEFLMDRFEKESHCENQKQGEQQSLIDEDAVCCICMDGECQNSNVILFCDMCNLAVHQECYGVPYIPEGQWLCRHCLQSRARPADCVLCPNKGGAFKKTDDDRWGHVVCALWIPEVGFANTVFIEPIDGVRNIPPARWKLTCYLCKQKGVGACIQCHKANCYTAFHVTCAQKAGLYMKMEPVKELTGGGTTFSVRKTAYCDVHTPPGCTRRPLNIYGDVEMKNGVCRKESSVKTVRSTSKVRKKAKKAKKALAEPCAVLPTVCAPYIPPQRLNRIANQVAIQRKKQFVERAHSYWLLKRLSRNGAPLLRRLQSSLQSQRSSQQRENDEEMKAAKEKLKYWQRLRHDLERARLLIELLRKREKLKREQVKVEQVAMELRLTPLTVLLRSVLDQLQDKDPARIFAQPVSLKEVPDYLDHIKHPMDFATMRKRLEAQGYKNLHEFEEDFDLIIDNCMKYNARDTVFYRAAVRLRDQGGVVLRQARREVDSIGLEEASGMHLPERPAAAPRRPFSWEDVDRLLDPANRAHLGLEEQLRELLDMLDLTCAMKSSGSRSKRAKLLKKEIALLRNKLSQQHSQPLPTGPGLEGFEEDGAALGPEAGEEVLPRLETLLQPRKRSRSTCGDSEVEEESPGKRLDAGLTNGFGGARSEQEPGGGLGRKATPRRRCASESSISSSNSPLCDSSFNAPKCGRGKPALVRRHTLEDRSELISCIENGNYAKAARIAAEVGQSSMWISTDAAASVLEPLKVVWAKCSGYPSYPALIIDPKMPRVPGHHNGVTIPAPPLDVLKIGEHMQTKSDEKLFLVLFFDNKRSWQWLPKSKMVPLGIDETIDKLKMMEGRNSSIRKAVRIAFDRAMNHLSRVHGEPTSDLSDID

- dTm [1]: 2 K
- dTm [2]: 2 K
Structure (SMILES): COc1ccccc1C(=O)Nc1cc2c(cc1N1CCCC1)n(C)c(=O)n2C

- % of control [3]: 15%
- % of control (Activated CDC42 kinase 1): 10%
- % of control [4]: 14%
- % of control [5]: 12%
Structure (SMILES): C[C@@H]1CCc2ncc(F)cc2[C@H]2CCCN2c2ccn3ncc(c3n2)C(=O)N1

- % of control [6]: 0.2%
- % of control [7]: 4.4%
- % of control [8]: 2.2%
- % of control [9]: 3.4%
- % of control [10]: 4%
- % of control [11]: 5.9%
Structure (SMILES): COc1ncc(-c2ccc3nccc(-c4ccnnc4)c3c2)cc1NS(=O)(=O)c1ccc(F)cc1F

Source: ChEMBL document CHEMBL5212743, “Selectivity Literature for EUbOPEN Chemogenomics Library wave 3” (2023)
